EP3530280B1, “VETERINARY COMPOSITION FOR MANUFACTURING A SEMINAL ADDITIVE USEFUL FOR ARTIFICIAL INSEMINATION IN ANIMALS” (Universidad De León, priority 2016, dated 2020)

Test system: swine
Assay: Field studies of semen additive in swine artificial insemination (fecundity, birth fertility, prolificacy)
Format: in vivo
Conditions: Experimental Groups, amount per dose as given in the Composition column
Description: In order to examine the effect of the prepared pharmaceutical composition in Example 1 above, for use thereof in swine artificial insemination, field studies were carried out about the effects on fecundity, birth fertility and prolificacy (mean of the total piglets being born (either dead or alive) per delivery). Tables 1 and 2 show the results of the studies being carried out, observing how there are differences being statistically significant in all the experimental groups with respect to control groups.
The statistical characters of fecundity (%fecundity), prolificacy (N.T.), number of alive births (N.V.) and mortality (% of N.M. against N.T.), were tested on factorial ANOVA, LSD Fisher and SAS package (Statistical Analysis System). Table 1. Effects on fecundity and birth fertility

[1] = additive applied to seminal doses for swine artificial insemination

Oxytocin
prolificacy (mean of the total piglets being born (either dead or alive) per delivery) (Mean ± e.s. (n)): 14.30 ± 0.29 (154)
Birth Fertility (%) [1]: 88.89%
Fecundity (%) [1]: 90.26%
